Values quoted from earlier work, collected in patent publication US6670388B1, “Fatty acid synthase inhibitors” (SmithKline Beecham Corporation, priority 2000, dated 2003).

Key:
bacteria = conditions: in vivo and in vitro
[1] = system: all three condensing enzymes

SMILES | antibacterial activity (bacteria) | inhibition of mammalian FASs (mammalian FASs) | inhibition of condensing enzymes [1] | inhibition of FabB & F (FabB & F)
C=C/C(C)=C/[C@@]1(C)SC(=O)C(C)=C1O [thiolactomycin] | broad-spectrum antibacterial activity both in vivo and in vitro | does not inhibit mammalian FASs | specifically inhibit all three condensing enzymes | 
C/C=C/C/C=C/CCC(=O)[C@H]1O[C@H]1C(N)=O [cerulenin] | bactericidal |  |  | potent inhibitor of FabB & F
